What was measured:
[1] = Solubility assay, ChemiLuminescent Nitrogen Detection (CLND) (Assay 4); type: physicochemical; conditions: phosphate buffered saline (PBS) pH 7.4, aqueous buffer, kinetic from dmso stock, PBS pH 7.4, from 10 mM DMSO stock, 1 h at room temperature
Description: Assay 4. Solubility Assay—ChemiLuminescent Nitrogen Detection (CLND) I. Compounds A 10 mM DMSO stock solution of the compound was prepared. Solvents and Buffers Organic solvents of HPLC grade were used. Ultra pure water (Milli-Q grade) was used. Buffers were prepared with ultra pure water and filtered using 0.45μ cameo filters. Aqueous Buffer Solution: Phosphate Buffer Saline (PBS) @ pH 7.4 was prepared from Sigma dry powder packs, P-3813. Each one was diluted to 1 liter with deionised water. The pH was checked before the solution was used II. Procedures. • a) DMSO concentration was measured. DMSO blanks and ondansetron and caffeine standards were added to the plate (column 12, A, B, C, & D for the blanks and E, F, G, & H for the standards). Plates were covered with foil. When the UV and CLND detectors baselines appeared to be stable, the CLND was zeroed. • b) Once DMSO concentration measurements were complete, a filtration plate was prepared from each parent plate by diluting 5 μl of the 10 mM DMSO stock solution to […] with pH7.4 PBS. • c) After the plates were prepared, they were covered with a plate lid and left to incubate for 1 h at room temperature. • d) Sample was filtered using MILLIPORE MultiScreen Solubility (MSSLBPC10) Filtration Plates, to NUNC V well plates. […]

THP-1 cells = experiment: Leishmania donovani intracellular assay (Assay 5), THP-1 cytotoxicity; type: cell-based; conditions: human, 96 h incubation, read-out: cytotoxicity against THP-1 cells, pEC50 (converted)
Description: Assay 5. Leishmania donovani Intracellular Assay
Compounds were dispensed into black 384-well assay plates (Greiner) by acoustic dispensing (LabCyte ECHO). For potency determinations, eleven-point, one in three dilution curves were generated, with a top concentration of 50 μM. THP-1 human monocytes cells were dispensed in T225 tissue culture flasks and differentiated using 30 nM of PMA, after 24 hours they were infected overnight using Leishmania donovani expressing Green Fluorescent Protein (eGFP) amastigotes in the same T225 tissue culture flasks at a multiplicity of infection of 10. Next, any remaining free amastigotes were washed away with PBS and the infected THP-1 cells were harvested by trypsinisation. The infected cells were then plated into 384-well plates containing the compounds to be tested, at 3000 cells per well in RPMI media with 2% FBS and 25 mM Sodium bicarbonate. After 96 h incubation at 37° C. in presence of 5% CO2, the plates were fixed with 4% formaldehyde for 30 minutes, washed with PBS and stained with 0.1 mg/mL of DAPI for 30 minutes and washed again with PBS. The plates were imaged on a Perkin Elmer Opera high-content imaging system using a 20× air objective with two expositions, one for DAPI stain and other for eGFP. Images were analysed using the Acapella building blocks system (Perkin Elmer). The image analysis algorithm first identified the THP-1 nuclei followed by demarcation of the cytoplasm and identification of intracellular amastigotes. This algorithm reported mean number of parasites per THP-1 cell, the percentage of infected THP-1 cells and the total number of THP-1 cells.

RnH9c2 cells = experiment: Trypanosoma cruzi intracellular assay (Assay 2), host cell cytotoxicity; type: cell-based; conditions: rat, H9C2 cardiomyocytes infected with Trypanosoma cruzi, 72 h incubation, read-out: cytotoxicity against RnH9c2 cells, pEC50 (converted)
Description: Compounds were dispensed into black 384-well assay plates (Greiner) by acoustic dispensing (LabCyte ECHO). For potency determinations, eleven-point, one in three dilution curves were generated, with a top concentration of 50 μM. H9C2 rat cardiomyocytes cells were dispensed in T225 tissue culture flasks and after 4 hours they were infected during 18 hours with T. cruzi trypomastigotes in the same T225 tissue culture flasks at a multiplicity of infection of 1. Next, any remaining free trypomastigotes were washed away with PBS and the infected H9C2 cells were harvested by trypsinisation. The infected H9C2 cells were then plated into 384-well plates containing the compounds to be tested, at 2500 cells per well in DMEM media with 2% FBS, 1% Penicillin/Streptomicin, 2 mM L-Glutamine, 1 mM Na Pyruvate and 25 mM HEPES. After 72 h incubation at 37° C. in presence of 5% CO2, the plates were fixed and stained with 4% formaldehyde and 2 μM Draq5 for 3 hours at room temperature. The plates were imaged on a Perkin Elmer Opera high-content imaging system using a 20× air objective. Images were analyzed using the Acapella building blocks system (Perkin Elmer). The image analysis algorithm first identified the H9C2 nuclei followed by demarcation of the cytoplasm and identification of intracellular amastigotes. This algorithm reported mean number of parasites per H9C2 cell, the percentage of infected H9C2 cells and the total number of H9C2 cells.

In the case of O=C(Nc1ccc(F)c(-c2ccn3c(N4CCOCC4)cnc3n2)c1)N1CCCC1 [Example 4, N-(4-fluoro-3-(3-morpholinoimidazo[1,2-a]pyrimidin-7-yl)phenyl)pyrrolidine-1-carboxamide], the solubility at 1 h [1] is reported as > 444 µM, the EC50 at 96 h (THP-1 cells) is reported as > 50.1 µM and the EC50 at 72 h (RnH9c2 cells) is reported as > 50.1 µM.

— US10479792B2, “Compounds” (GlaxoSmithKline Intellectual Property Development Limited, priority 2015, dated 2019)
